Values joined by “and” are separate entries in the source; they are usually repeats but may differ in a detail not shown here. Equal entries are not always repeated. Toxic doses and inconclusive results are not listed. Rule for the calls: active = survival T/C of 150% or more; inactive = T/C below 125% in these data.
Test system: CD2F1 mice, L1210 leukemia ip, survival T/C
Experiment: NCI In Vivo Anticancer Drug Screen. Data for tumor model L1210 Leukemia (intraperitoneal) in CD2F1 (CDF1) mice
Conditions: endpoint: mean survival time, higher = longer survival
Procedure, shortened: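 Tumor-bearing mice (transplanted tumor) were split into treated and vehicle control groups, and the measured endpoint of each treated group was divided by that of its vehicle controls.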

[1] = dose: 100.0 mg/kg/injection, schedule: Q01DX001 (ip), vehicle: saline with Tween-80
[2] = dose: 100.0 mg/kg/injection, schedule: Q01DX009 (ip), vehicle: saline with Tween-80
[3] = dose: 200.0 mg/kg/injection, schedule: Q01DX001 (ip), vehicle: saline with Tween-80
[4] = dose: 200.0 mg/kg/injection, schedule: Q01DX009 (ip), vehicle: saline with Tween-80
[5] = dose: 400.0 mg/kg/injection, schedule: Q01DX001 (ip), vehicle: saline with Tween-80
[6] = dose: 400.0 mg/kg/injection, schedule: Q01DX009 (ip), vehicle: saline with Tween-80
[7] = dose: 100.0 mg/kg/injection, schedule: Q01DX001 (ip), vehicle: saline
[8] = dose: 200.0 mg/kg/injection, schedule: Q01DX001 (ip), vehicle: saline
[9] = dose: 400.0 mg/kg/injection, schedule: Q01DX001 (ip), vehicle: saline
[10] = dose: 100.0 mg/kg/injection, schedule: Q04DX002 (ip), vehicle: saline with Tween-80
[11] = dose: 100.0 mg/kg/injection, schedule: Q04DX003 (ip), vehicle: saline with Tween-80
[12] = dose: 200.0 mg/kg/injection, schedule: Q04DX003 (ip), vehicle: saline with Tween-80
[13] = dose: 400.0 mg/kg/injection, schedule: Q04DX003 (ip), vehicle: saline with Tween-80
[14] = dose: 50.0 mg/kg/injection, schedule: Q04DX003 (ip), vehicle: saline with Tween-80
[15] = dose: 200.0 mg/kg/injection, schedule: Q04DX002 (ip), vehicle: saline with Tween-80
[16] = dose: 400.0 mg/kg/injection, schedule: Q04DX002 (ip), vehicle: saline with Tween-80

Measured: T/C

O=C(O)/C=C/c1cccs1
inactive: dose: 50.0 mg/kg/injection, schedule: Q01DX009 (ip), vehicle: Klucel (hydroxypropylcellulose) (HPC) 101 % of control | dose: 100.0 mg/kg/injection, schedule: Q01DX009 (ip), vehicle: Klucel (hydroxypropylcellulose) (HPC) 101 % of control | dose: 200.0 mg/kg/injection, schedule: Q01DX009 (ip), vehicle: Klucel (hydroxypropylcellulose) (HPC) 96 % of control

CCN(CC)Cc1cc(Nc2ncnc3oc(C)c(C)c23)ccc1O
inactive: [1] 100 % of control | [2] 102 % of control | [3] 95 % of control | [4] 96 % of control | [5] 95 % of control | [6] 100 % of control

O=Cc1cc(C(=O)O)ccc1O
inactive: [7] 100 % of control | [8] 97 % of control | [9] 94 % of control

CS(=O)CN(c1c(Cl)c(Cl)c(NS(=O)(=O)c2ccccc2)c(Cl)c1Cl)S(=O)(=O)c1ccccc1 (configuration not stated)
inactive: [1] 96 % of control | [3] 92 % of control | [5] 92 % of control

Cc1cc(=O)n2cc(Br)ccc2n1
inactive: dose: 12.5 mg/kg/injection, schedule: Q01DX001 (ip), vehicle: saline 108 % of control | dose: 25.0 mg/kg/injection, schedule: Q01DX001 (ip), vehicle: saline 107 % of control | dose: 50.0 mg/kg/injection, schedule: Q01DX001 (ip), vehicle: saline 96 % of control

CC1=CC(=O)C(CCC#N)C(C)(C)C1 (configuration not stated)
inactive: [10] 91 % of control

O=C1OC(=O)C2C1C1CCC2C1(c1ccccc1)c1ccccc1 (configuration not stated)
inactive: [11] 97 % of control | [12] 97 % of control | [13] 97 % of control

CC12OC3(C)C4CC1C1(C)OC4(C)C3C(O)C21 (configuration not stated)
inactive: [7] 97 % of control | dose: 100.0 mg/kg/injection, schedule: Q04DX003 (ip), vehicle: saline 105 % of control | [8] 97 % of control | dose: 200.0 mg/kg/injection, schedule: Q04DX003 (ip), vehicle: saline 102 % of control | [9] 100 % of control | dose: 400.0 mg/kg/injection, schedule: Q04DX003 (ip), vehicle: saline 96 % of control

CN(C)Cc1cc(Cl)cc(CN(C)C)c1O
inactive: dose: 25.0 mg/kg/injection, schedule: Q04DX003 (ip), vehicle: saline with Tween-80 105 % of control | [14] 97 % of control | [11] 101 % of control

CCCCCCCCCCCCCCN1CCCN(CCCCCCCCCCCCCC)CC1
inactive: [14] 93 % of control | [1] 94 % of control | [2] 96 % of control and 101 % of control | [10] 96 % of control | [11] 93 % of control and 101 % of control | [3] 94 % of control | [4] 98 % of control and 104 % of control | [15] 93 % of control and 97 % of control | [12] 98 % of control and 100 % of control | [5] 101 % of control | [6] 93 % of control and 95 % of control | [16] 93 % of control and 96 % of control | [13] 98 % of control

CC1(c2ccccc2)NC(=O)NC1=O (configuration not stated)
inactive: dose: 100.0 mg/kg/injection, schedule: Q01DX009 (ip), vehicle: other 98 % of control | [11] 94 % of control | dose: 200.0 mg/kg/injection, schedule: Q01DX009 (ip), vehicle: other 97 % of control | [12] 97 % of control | [13] 91 % of control

Nc1ccc(OCC(=O)O)cc1
inactive: [1] 101 % of control | [3] 98 % of control | [5] 110 % of control

O=C(CCCN1CCC2(CC1)CC(=O)N(N1CCCC1)C2=O)c1ccc(F)cc1
inactive: [1] 108 % of control | [3] 116 % of control | [5] 116 % of control

O=C(O)C1CCC=CC1c1ccccc1 (configuration not stated)
inactive: [10] 95 % of control | [15] 102 % of control | [16] 91 % of control

O=S(=O)(O)c1ccc(/C2=c3\cc/c([n-]3)=C(\c3ccc(S(=O)(=O)O)cc3)c3ccc([n-]3)/C(c3ccc(S(=O)(=O)O)cc3)=c3/cc/c([n-]3)=C(\c3ccc(S(=O)(=O)O)cc3)c3ccc2[n-]3)cc1.[Co]
inactive: dose: 50.0 mg/kg/injection, schedule: Q04DX002 (ip), vehicle: saline 104 % of control | dose: 100.0 mg/kg/injection, schedule: Q04DX002 (ip), vehicle: saline 101 % of control | dose: 200.0 mg/kg/injection, schedule: Q04DX002 (ip), vehicle: saline 101 % of control

COC1=C(OC)C(=O)C(SCc2ccc(OC)cc2)=CC1=O
inactive: dose: 6.25 mg/kg/injection, schedule: Q01DX009 (ip), vehicle: saline with Tween-80 102 % of control | dose: 12.5 mg/kg/injection, schedule: Q01DX009 (ip), vehicle: saline with Tween-80 91 % of control | dose: 25.0 mg/kg/injection, schedule: Q01DX009 (ip), vehicle: saline with Tween-80 87 % of control

CO/C=C1\Cc2cc(OC)c(OC)cc2C1=O
inactive: [11] 100 % of control | [12] 94 % of control | [13] 102 % of control

O=C(O)c1[nH]nc(-c2ccc([N+](=O)[O-])cc2)c1[N+](=O)[O-]
inactive: dose: 4.7 mg/kg/injection, schedule: Q01DX005 (ip), vehicle: water 86 % of control | dose: 9.4 mg/kg/injection, schedule: Q01DX005 (ip), vehicle: water 90 % of control | dose: 18.8 mg/kg/injection, schedule: Q01DX005 (ip), vehicle: water 90 % of control | dose: 37.5 mg/kg/injection, schedule: Q01DX005 (ip), vehicle: water 104 % of control | dose: 50.0 mg/kg/injection, schedule: Q01DX005 (ip), vehicle: water 97 % of control | dose: 75.0 mg/kg/injection, schedule: Q01DX005 (ip), vehicle: water 93 % of control | dose: 100.0 mg/kg/injection, schedule: Q01DX005 (ip), vehicle: water 93 % of control | dose: 200.0 mg/kg/injection, schedule: Q01DX005 (ip), vehicle: water 89 % of control | dose: 400.0 mg/kg/injection, schedule: Q01DX005 (ip), vehicle: water 101 % of control

COC(=O)c1ccc(Cl)nc1
inactive: dose: 75.0 mg/kg/injection, schedule: Q04DX003 (ip), vehicle: saline with Tween-80 106 % of control | [2] 98 % of control | dose: 150.0 mg/kg/injection, schedule: Q04DX003 (ip), vehicle: saline with Tween-80 106 % of control | [4] 97 % of control | dose: 300.0 mg/kg/injection, schedule: Q04DX003 (ip), vehicle: saline with Tween-80 100 % of control | [6] 87 % of control

— PubChem BioAssay AID256 (DTP/NCI, 2004)
